Assay [1] deals with T1, Serine/threonine-protein kinase D2 (Homo sapiens) (UniProt Q9BZL6).
T1 sequence (whole entry): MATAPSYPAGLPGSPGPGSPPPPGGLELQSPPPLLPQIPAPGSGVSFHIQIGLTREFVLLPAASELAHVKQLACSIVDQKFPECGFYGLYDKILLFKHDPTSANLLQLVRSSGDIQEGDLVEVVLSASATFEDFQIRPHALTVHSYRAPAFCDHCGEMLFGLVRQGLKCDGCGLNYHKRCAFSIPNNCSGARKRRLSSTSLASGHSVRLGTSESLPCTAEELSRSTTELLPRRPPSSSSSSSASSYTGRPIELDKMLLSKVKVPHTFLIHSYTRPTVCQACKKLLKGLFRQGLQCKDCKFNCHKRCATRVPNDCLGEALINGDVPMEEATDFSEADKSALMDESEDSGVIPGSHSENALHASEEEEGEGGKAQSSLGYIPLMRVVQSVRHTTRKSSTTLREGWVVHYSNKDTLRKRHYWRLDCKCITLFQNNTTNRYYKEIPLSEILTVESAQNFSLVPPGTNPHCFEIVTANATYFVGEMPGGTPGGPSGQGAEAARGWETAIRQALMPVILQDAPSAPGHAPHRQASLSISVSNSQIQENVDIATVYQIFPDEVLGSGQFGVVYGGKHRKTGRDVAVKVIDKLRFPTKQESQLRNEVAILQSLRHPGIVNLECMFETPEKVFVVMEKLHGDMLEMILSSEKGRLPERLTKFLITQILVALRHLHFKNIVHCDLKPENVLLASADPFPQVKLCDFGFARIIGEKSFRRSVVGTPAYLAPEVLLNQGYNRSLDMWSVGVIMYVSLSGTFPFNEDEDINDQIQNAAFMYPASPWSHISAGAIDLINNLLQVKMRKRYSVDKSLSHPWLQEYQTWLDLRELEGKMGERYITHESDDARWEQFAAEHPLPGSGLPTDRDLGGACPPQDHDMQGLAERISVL
Nature of the assay: Selectivity interaction (KinomeScan (DiscoverX)) EUB0001079a PRKD2. The note with it: at 1 µM.

Assay [2] has as its target High affinity nerve growth factor receptor (Homo sapiens, UniProt P04629). As to the kind of experiment: Selectivity interaction (KinomeScan (DiscoverX)) EUB0000092b NTRK1. The note with it: at 10 µM.
The target in assay [3] is Cyclin-dependent kinase 2 (Homo sapiens, UniProt P24941). As to the kind of experiment: Selectivity interaction (KinomeScan (DiscoverX)) EUB0001049a CDK2. Conditions: at 1 µM.
The target of assay [4] is T2, Histone-arginine methyltransferase CARM1 (Homo sapiens) (UniProt Q86X55).
T2 sequence (whole entry): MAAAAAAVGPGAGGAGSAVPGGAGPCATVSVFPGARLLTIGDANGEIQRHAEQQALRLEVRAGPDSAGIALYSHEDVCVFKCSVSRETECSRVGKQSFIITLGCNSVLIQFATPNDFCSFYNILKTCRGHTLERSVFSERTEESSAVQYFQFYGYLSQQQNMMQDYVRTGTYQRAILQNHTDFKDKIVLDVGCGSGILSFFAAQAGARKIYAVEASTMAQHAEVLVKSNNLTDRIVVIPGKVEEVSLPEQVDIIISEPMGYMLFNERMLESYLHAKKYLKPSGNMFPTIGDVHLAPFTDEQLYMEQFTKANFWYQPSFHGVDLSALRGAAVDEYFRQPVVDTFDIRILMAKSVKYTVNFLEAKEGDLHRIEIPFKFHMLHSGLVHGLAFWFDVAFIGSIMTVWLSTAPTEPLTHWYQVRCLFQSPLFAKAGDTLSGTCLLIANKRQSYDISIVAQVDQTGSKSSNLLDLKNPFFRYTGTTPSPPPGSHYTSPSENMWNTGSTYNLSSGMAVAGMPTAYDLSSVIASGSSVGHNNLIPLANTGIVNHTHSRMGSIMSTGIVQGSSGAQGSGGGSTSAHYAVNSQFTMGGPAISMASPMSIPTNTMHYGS
As to the kind of experiment: Selectivity interaction (Transferase panel (protein, RNA, and DNA methyltransferases. and EP300 (acetyltransferase))) EUB0000270b CARM1.

Assay [5] addresses Phosphatidylinositol 4,5-bisphosphate 3-kinase catalytic subunit gamma isoform (Homo sapiens) (UniProt P48736). As to the kind of experiment: Selectivity interaction (KinomeScan (DiscoverX)) EUB0000045b PIK3CG.
For assay [6], the target named is Serine/threonine-protein kinase WNK2 (Homo sapiens) (UniProt Q9Y3S1). As to the kind of experiment: Selectivity interaction (ActivX KiNativ screen (kinase selectivity in THP-1 cell lysates)) EUB0000639a WNK2. The assay is classed as subcellular. The note with it: lysate, at 0.01 µM.
Assay [7] has as its target T3, Ephrin type-A receptor 6 (Homo sapiens) (UniProt Q9UF33).
T3 sequence (whole entry): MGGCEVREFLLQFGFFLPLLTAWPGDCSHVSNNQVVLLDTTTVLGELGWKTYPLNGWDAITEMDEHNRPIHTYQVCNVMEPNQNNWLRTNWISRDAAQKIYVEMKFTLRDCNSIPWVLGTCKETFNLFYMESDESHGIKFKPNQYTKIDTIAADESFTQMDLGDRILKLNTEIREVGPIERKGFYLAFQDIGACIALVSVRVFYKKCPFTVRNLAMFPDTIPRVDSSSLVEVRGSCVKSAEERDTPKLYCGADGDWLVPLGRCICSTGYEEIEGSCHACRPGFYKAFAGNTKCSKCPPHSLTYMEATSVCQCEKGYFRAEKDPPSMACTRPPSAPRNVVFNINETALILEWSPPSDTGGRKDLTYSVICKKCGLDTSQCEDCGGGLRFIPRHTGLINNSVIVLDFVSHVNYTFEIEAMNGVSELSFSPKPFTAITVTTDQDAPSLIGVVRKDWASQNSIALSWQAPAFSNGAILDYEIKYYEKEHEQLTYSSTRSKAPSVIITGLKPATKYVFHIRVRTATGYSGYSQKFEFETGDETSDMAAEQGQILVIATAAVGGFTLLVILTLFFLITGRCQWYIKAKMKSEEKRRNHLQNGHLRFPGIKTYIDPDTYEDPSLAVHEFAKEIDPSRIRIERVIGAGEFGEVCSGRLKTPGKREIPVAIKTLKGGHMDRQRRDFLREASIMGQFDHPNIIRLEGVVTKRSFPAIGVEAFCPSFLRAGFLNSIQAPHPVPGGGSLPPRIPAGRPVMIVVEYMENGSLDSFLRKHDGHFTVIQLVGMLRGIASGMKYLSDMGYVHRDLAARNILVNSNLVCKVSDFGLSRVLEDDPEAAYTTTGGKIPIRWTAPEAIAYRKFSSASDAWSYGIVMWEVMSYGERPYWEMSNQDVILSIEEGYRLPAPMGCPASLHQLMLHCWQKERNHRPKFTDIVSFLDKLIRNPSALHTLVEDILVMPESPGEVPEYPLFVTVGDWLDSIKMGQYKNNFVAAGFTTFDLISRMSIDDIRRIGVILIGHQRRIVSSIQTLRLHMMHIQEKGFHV
Nature of the assay: Selectivity interaction (KinomeScan (DiscoverX)) EUB0000595a EPHA6. Conditions: at 10 µM.

SMILES strings stand for the structures. Bounds are passed on as bounds.

Chain of Phosphatidylinositol 4,5-bisphosphate 3-kinase catalytic subunit gamma isoform (Homo sapiens) (P48736 whole entry, looked up, canonical isoform): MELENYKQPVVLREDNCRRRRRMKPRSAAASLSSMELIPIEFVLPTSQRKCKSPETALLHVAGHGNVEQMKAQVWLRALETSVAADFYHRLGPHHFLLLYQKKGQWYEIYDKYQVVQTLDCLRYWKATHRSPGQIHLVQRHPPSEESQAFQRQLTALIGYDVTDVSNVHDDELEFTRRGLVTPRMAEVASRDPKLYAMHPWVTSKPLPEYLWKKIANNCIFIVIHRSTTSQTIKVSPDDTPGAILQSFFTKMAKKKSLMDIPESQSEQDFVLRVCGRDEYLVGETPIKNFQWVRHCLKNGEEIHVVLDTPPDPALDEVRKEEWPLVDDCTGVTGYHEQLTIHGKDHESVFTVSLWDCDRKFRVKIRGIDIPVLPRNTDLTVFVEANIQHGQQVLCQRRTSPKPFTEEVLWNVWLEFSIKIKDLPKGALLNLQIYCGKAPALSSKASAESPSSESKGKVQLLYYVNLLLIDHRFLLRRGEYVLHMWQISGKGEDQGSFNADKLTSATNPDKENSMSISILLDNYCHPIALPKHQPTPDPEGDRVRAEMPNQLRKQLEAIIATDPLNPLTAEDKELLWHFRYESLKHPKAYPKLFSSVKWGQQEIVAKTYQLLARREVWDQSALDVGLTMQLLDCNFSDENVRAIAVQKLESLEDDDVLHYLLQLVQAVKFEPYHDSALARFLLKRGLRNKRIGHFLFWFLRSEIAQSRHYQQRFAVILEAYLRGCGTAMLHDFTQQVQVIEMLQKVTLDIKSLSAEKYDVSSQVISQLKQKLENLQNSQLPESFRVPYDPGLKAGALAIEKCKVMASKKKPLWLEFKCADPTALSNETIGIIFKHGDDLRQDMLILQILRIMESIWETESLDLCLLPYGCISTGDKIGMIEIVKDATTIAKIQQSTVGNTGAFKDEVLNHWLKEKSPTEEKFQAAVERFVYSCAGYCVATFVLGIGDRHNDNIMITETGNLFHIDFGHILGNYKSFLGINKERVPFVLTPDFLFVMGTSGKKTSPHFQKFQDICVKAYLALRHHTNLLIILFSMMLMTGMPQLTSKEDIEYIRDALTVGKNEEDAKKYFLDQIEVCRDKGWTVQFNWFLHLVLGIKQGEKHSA
Chain of High affinity nerve growth factor receptor (P04629 33-796 limits assumed): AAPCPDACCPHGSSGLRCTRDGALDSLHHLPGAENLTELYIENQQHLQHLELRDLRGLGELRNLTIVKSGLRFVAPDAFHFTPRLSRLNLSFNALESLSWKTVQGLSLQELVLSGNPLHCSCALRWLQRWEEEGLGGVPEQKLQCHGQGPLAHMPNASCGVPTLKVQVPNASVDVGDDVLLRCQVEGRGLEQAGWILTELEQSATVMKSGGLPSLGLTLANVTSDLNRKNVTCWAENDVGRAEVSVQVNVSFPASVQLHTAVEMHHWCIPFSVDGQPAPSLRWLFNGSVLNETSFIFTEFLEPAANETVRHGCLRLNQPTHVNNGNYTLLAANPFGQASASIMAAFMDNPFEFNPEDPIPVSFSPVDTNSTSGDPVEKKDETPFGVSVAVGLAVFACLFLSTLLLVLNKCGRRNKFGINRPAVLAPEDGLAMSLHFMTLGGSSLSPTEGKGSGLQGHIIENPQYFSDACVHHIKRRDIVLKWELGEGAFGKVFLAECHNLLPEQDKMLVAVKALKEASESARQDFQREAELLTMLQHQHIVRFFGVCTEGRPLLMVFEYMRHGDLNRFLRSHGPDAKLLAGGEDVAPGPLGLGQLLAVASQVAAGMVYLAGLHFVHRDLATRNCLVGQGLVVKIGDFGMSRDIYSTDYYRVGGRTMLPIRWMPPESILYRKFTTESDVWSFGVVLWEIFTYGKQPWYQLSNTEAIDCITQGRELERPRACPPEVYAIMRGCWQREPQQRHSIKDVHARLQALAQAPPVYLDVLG
Chain of Serine/threonine-protein kinase WNK2 (Homo sapiens) (Q9Y3S1 whole entry): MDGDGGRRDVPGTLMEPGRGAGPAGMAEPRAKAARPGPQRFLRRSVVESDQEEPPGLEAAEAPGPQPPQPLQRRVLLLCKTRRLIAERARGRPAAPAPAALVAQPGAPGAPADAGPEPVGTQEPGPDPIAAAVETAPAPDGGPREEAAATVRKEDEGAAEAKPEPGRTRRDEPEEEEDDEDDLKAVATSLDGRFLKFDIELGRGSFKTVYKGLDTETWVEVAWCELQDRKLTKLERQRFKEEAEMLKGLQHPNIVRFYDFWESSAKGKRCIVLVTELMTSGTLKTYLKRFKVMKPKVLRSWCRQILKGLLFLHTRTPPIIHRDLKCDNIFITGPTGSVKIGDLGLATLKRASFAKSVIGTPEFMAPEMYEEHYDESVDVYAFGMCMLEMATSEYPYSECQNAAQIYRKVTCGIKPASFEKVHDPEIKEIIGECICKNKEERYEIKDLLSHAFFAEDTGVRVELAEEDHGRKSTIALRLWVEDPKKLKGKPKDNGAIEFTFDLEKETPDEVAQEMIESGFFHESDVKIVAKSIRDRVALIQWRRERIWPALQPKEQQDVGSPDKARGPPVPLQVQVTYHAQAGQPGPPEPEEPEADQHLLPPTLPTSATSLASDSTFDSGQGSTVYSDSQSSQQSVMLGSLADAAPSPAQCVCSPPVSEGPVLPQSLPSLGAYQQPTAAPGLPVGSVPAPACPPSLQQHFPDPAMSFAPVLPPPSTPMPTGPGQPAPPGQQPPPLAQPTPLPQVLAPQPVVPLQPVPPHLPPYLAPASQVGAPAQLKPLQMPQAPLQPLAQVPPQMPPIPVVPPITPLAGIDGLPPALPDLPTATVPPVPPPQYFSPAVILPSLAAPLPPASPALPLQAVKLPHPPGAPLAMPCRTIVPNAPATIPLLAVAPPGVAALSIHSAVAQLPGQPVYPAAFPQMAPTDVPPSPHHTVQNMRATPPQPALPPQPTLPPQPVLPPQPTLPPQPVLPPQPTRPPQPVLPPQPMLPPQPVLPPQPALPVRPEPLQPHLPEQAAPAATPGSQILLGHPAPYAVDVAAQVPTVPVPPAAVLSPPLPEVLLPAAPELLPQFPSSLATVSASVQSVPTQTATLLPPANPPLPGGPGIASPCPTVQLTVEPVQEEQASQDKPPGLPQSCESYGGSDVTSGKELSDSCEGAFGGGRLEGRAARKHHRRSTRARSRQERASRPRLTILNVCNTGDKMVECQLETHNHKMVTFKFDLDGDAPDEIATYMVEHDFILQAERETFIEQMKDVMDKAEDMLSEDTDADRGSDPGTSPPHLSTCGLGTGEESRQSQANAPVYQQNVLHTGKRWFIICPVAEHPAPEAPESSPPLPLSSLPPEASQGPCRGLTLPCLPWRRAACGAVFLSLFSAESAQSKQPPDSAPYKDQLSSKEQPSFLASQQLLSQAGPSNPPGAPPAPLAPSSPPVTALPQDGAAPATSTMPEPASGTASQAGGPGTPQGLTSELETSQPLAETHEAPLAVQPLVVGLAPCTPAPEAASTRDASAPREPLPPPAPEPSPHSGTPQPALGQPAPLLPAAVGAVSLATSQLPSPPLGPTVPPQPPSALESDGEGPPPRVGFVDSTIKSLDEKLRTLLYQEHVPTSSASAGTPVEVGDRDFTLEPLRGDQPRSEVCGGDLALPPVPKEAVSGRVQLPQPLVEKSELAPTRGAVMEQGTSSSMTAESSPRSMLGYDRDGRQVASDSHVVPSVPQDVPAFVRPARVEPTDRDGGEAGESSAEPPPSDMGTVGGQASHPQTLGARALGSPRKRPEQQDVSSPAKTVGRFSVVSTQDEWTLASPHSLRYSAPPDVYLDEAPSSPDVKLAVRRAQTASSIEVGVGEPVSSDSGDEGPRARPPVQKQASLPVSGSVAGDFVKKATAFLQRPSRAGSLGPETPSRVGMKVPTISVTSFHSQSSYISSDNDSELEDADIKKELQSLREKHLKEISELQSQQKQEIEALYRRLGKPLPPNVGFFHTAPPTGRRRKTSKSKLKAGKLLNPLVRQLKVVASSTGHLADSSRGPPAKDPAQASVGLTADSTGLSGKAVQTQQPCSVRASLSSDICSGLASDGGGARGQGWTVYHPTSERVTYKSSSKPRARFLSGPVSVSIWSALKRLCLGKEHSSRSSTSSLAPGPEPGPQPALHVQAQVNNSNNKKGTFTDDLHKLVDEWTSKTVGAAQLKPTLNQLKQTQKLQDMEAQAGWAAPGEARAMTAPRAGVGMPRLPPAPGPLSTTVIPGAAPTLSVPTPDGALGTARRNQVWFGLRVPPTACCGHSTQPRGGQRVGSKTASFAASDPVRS

The compound `Nc1cnc(N2CCc3cc(S(=O)(=O)Nc4c(F)cc(Cl)cc4F)cc(N4CCCC4=O)c32)nc1` [TP-020n] returned a % of control in assay [1] of 100%.
In turn, `CCC(=O)N1CCN(c2ccc(-n3c(=O)ccc4cnc5ccc(-c6cnc7ccccc7c6)cc5c43)cc2C(F)(F)F)CC1` showed a % of control in assay [2] of 64%.
`COc1cc(Nc2nc(C)cc(-c3cnn4nc(OC)ccc34)n2)cc(C(F)(F)F)c1` displayed a % of control in assay [3] of 91%.
On to `Cc1cc(CN)cc(C)c1-c1ncn(C)c1-c1cncn1C`, for which the % activity in assay [4] (at 1 µM) is greater than 90%; in assay [4] (at 10 µM), greater than 80%.
In the case of `C=CC(=O)Nc1cc(-n2c(=O)ccc3cnc4ccc(-c5ccc(NS(C)(=O)=O)cc5)cc4c32)ccc1C`, the % of control in assay [5] (at 1 µM) amounted to 2.8%; in assay [5] (at 10 µM), 0%.
Consider `CC[C@@H]1[C@H](F)C(=O)N[C@@H]1COc1nccc2cc(C(N)=O)c(OC)cc12` [ZIMLOVISERTIB], for which, in assay [6], the % of inhibition was determined as 3.3%.
In turn, `COCC(=O)NC/C=C/c1ccc2ncnc(Nc3ccc(Oc4ccc(C)nc4)c(C)c3)c2c1` [CP-724714] registered a % of control in assay [7] of 96%.

These data come from ChEMBL document CHEMBL5465560, “Selectivity Literature for EUbOPEN Chemogenomic Library” (2024).
